Experimental data: EP2396329B1, “COMPOUNDS FOR THE TREATMENT OF HEPATITIS C” (priority 2009, dated 2010)
pEC50, pIC50: −log10 of the molar value. Read-outs that look alike come from different tables or passages of the source.

Legend:
HCV replicon = HCV replicon assay (FRET or luciferase readout); assay type: cell-based; settings: Hepatitis C virus
Excerpt: FRET Assay Preparation. To perform the HCV FRET screening assay, 96-well cell culture plates were used. The FRET peptide (Anaspec, Inc.) (Taliani et al., Anal. Biochem. 1996, 240, 60-67) contains a fluorescence donor, EDANS, near one end of the peptide and an acceptor, DABCYL, near the other end. The fluorescence of the peptide is quenched by […] resonance energy transfer (RET) between the donor and the acceptor, but as the NS3 protease cleaves the peptide the products are released from RET quenching and the fluorescence of the donor becomes apparent. The assay reagent was made as follows: 5X cell Luciferase cell culture lysis reagent from Promega (#E153A) diluted to 1X with dH2O, NaCl added to 150 mM final, the FRET peptide diluted to 20 µM final from a 2 mM stock.
To prepare plates, HCV replicon cells, with or without a Renilla luciferase reporter gene, were trypsinized and placed into each well of a 96-well plate with titrated test compounds added in columns 3 through 12; columns 1 and 2 contained a control compound (HCV protease inhibitor), and the bottom row contained cells without compound. The plates were then placed in a CO2 incubator at 37 °C.
Assays. Subsequent to addition of the test compounds described above (FRET Assay Preparation), at various times the plate was removed and Alamar blue solution (Trek Diagnostics, #00-100) was added per well as a measure of cellular toxicity. After reading in a Cytoflour 4000 instrument (PE Biosystems), plates were rinsed with PBS and then used for FRET assay by the addition of 30 ul of the FRET peptide assay reagent described above (FRET Assay Preparation) per well. The plate was then placed into the Cytoflour 4000 instrument which had been set to 340 excite/490 emission, automatic mode for 20 cycles and the plate read in a kinetic mode. Typically, the signal to noise using an endpoint analysis after the reads was at least three-fold. Alternatively, after Alamar blue reading, plates were rinsed with PBS, 50 ul of DMEM (high glucose) without phenol red was added and plates were then used for luciferase assay using the Promega Dual-Glo Luciferase Assay System.
Compound analysis was determined by quantification of the relative HCV replicon inhibition and the relative cytotoxicity values. To calculate cytoxicity values, the average Alamar Blue fluorescence signals from the control wells were set as 100% non-toxic. The individual signals in each of the compound test wells were then divided by the average control signal and multiplied by 100% to determine […]. To calculate the HCV replicon inhibition values, an average background value was obtained from the two wells containing the highest amount of HCV protease inhibitor at the end of the assay period. These numbers were similar to those obtained from naïve Huh-7 cells.
The background numbers were then subtracted from the average signal obtained from the control wells and this number was used as 100% activity. The individual signals in each of the compound test wells were then divided by the averaged control values after background subtraction and multiplied by 100% to determine percent activity. EC50 values for a protease inhibitor titration were calculated as the concentration which caused a 50% reduction in FRET or luciferase activity. The two numbers generated for the compound plate, percent cytoxicity and percent activity were used to determine compounds of interest for further analysis.

HCV NS5B = target: T1, HCV NS5B (Hepatitis C virus genotype 1b, UniProt Q9WMX2); experiment: HCV NS5B RdRp enzyme assay (standard or modified); assay type: biochemical
T1 construct: The protein was expressed with an 18 amino acid C-terminal truncation to enhance the solubility; made in house; host or cells: E. coli BL21(DE3)
T1 sequence (Q9WMX2 2420-2992): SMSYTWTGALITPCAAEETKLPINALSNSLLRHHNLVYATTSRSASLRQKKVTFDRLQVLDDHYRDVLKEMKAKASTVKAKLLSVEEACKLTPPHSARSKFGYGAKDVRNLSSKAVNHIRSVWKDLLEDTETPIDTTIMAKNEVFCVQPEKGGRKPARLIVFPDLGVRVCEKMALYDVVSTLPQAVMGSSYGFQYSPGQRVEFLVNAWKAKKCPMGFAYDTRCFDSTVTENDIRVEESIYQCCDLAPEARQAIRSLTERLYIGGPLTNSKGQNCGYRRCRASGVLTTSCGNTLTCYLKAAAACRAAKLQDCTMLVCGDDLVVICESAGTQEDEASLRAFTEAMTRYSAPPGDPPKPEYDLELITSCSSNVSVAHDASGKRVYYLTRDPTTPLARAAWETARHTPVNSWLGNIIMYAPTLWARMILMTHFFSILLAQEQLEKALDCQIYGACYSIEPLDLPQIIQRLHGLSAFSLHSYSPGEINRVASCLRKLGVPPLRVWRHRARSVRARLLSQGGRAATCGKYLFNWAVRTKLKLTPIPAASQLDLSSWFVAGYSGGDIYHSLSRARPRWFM
Procedure: HCV NS5B RdRp cloning, expression, and purification. The cDNA encoding the NS5B protein of HCV, genotype 1b, was cloned into the pET21a expression vector. The protein was expressed with an 18 amino acid C-terminal truncation to enhance the solubility. The E. coli competent cell line BL21(DE3) was used for expression of the protein. Cultures were grown at 37 °C for ~ 4 hours until the cultures reached an optical density of 2.0 at 600 nm. The cultures were cooled to 20 °C and induced with I mM IPTG. Fresh ampicillin was added to a final concentration of 50 µg/ml and the cells were grown overnight at 20 °C.
Cell pellets (3L) were lysed for purification to yield 15-24 mgs of purified NS5B. The lysis buffer consisted of 20 mM Tris-HCl, pH 7.4, 500 mM NaCl, 0.5% triton X-100, 1 mM DTT, 1mM EDTA, 20% glycerol, 0.5 mg/ml lysozyme, 10 mM MgCl2, 15 ug/ml deoxyribonuclease I, and Complete TM protease inhibitor tablets (Roche). After addition of the lysis buffer, frozen cell pellets were resuspended using a tissue homogenizer. To reduce the viscosity of the sample, aliquots of the lysate were sonicated on ice using a microtip attached to a Branson sonicator. The sonicated lysate was centrifuged at 100,000 x g for 1hr at 4 °C and filtered through a 0.2 µm filter unit (Corning).
The protein was purified using three sequential chromatography steps: Heparin sepharose CL-6B, polyU sepharose 4B, and Hitrap SP sepharose (Pharmacia). The chromatography buffers were identical to the lysis buffer but contained no lysozyme, deoxyribonuclease I, MgCl2 or protease inhibitor and the NaCl concentration of the buffer was adjusted according to the requirements for charging the protein onto the column. Each column was eluted with a NaCl gradient which varied in length from 5-50 column volumes depending on the column type. After the final chromatography step, the resulting purity of the enzyme is >90% based on SDS-PAGE analysis. The enzyme was aliquoted and stored at -80 °C.
Standard HCV NS5B RdRp enzyme assay. HCV RdRp genotype 1b assays were run in a final volume of 60 µl in 96 well plates (Costar 3912). The assay buffer is composed of 20 mM Hepes, pH 7.5, 2.5 mM KCI, 2.5 mM MgCl2, 1 mM DTT, 1.6 U RNAse inhibitor (Promega N2515), 0.1 mg/ml BSA (Promega R3961), and 2 % glycerol. All compounds were serially diluted (3-fold) in DMSO and diluted further in water such that the final concentration of DMSO in the assay was 2%. HCV RdRp genotype Ib enzyme was used at a final concentration of 28 nM. A polyA template was used at.6 nM, and a biotinylated oligo-dT12 primer was used at 180 nM final concentration. Template was obtained commercially (Amersham 27-4110). Biotinylated primer was prepared by Sigma Genosys. 3H-UTP was used at 0.6 µCi (0.29 µM total UTP). Reactions were initiated by the addition of enzyme, incubated at 30 °C for 60 min, and stopped by adding 25 µl of 50 mM EDTA containing SPA beads (4 µg/µl, Amersham RPNQ 0007). Plates were read on a Packard Top Count NXT after > 1hr incubation at room temperature.
Modified HCV NS5B RdRp enzyme assay. A modified enzyme assay was performed essentially as described for the standard enzyme assay except for the following: The biotinylated oligo dT12 primer was precaptured on streptavidin-coated SPA beads by mixing primer and beads in assay buffer and incubating at room temperature for one hour. Unbound primer was removed after centrifugation. The primer-bound beads were resuspended in 20 mM Hepes buffer, pH 7.5 and used in the assay at final concentrations of 20 nM primer and 0.67 µg/µl beads. Order of addition in the assay: enzyme (14 nM) was added to diluted compound followed by the addition of a mixture of template (0.2 nM), 3H-UTP (0.6 µCi, 0.29 µM), and primer-bound beads, to initiate the reaction; concentrations given are final. Reactions were allowed to proceed for 4 hours at 30° C.
IC50 values for compounds were determined using seven different [I]. […]

[1] = HCV replicon cells, FRET or luciferase activity, read-out: EC50
[2] = HCV NS5B RdRp enzyme, genotype 1b, read-out: IC50

Row | Compound | pEC50 (HCV replicon; [1]) | pIC50 (HCV NS5B; [2]) | pEC50 (HCV replicon) | pIC50 (HCV NS5B)
1 | COC[C@@H]1CN(C(=O)c2c(C)nn(C)c2C2=Cc3cc(OC)ccc3-c3c(C4CCCCC4)c4ccc(C(=O)NS(=O)(=O)C(C)C)cc4n3C2)CCO1 | 6.30 to 9.00 | 6.30 to 9.00 | – | –
2 | COc1ccc2c(c1)C=C(c1c(C(=O)N3CCN(C)CC3)c(C)nn1C)Cn1c-2c(C2CCCCC2)c2ccc(C(=O)NS(=O)(=O)C(C)C)cc21 | 6.30 to 9.00 | 6.30 to 9.00 | – | –
3 | CCn1nc(C)c(C2=Cc3cc(OC)ccc3-c3c(C4CCCCC4)c4ccc(C(=O)NS(=O)(=O)C(C)C)cc4n3C2)c1C(=O)N1C[C@@H](C)O[C@H](C)C1 | 6.30 to 9.00 | 6.30 to 9.00 | – | –
4 | CCn1nc(C)c(C2=Cc3cc(OC)ccc3-c3c(C4CCCCC4)c4ccc(C(=O)NS(=O)(=O)C(C)C)cc4n3C2)c1C(=O)N1CCN(C)CC1 | 6.30 to 9.00 | 6.30 to 9.00 | – | –
5 | CCn1nc(C)c(C2=Cc3cc(OC)ccc3-c3c(C4CCCCC4)c4ccc(C(=O)NS(=O)(=O)C(C)C)cc4n3C2)c1C(=O)N1C[C@@H](C)N(C)[C@@H](C)C1 | 6.30 to 9.00 | 6.30 to 9.00 | – | –
6 | CCn1ncc(C(=O)N2C[C@@H](C)N(C)[C@@H](C)C2)c1C1=Cc2cc(OC)ccc2-c2c(C3CCCCC3)c3ccc(C(=O)NS(=O)(=O)C(C)C)cc3n2C1 | 6.30 to 9.00 | 6.30 to 9.00 | – | –
7 | CCn1ncc(C(=O)N2C3CCC2CN(C)C3)c1C1=Cc2cc(OC)ccc2-c2c(C3CCCCC3)c3ccc(C(=O)NS(=O)(=O)C(C)C)cc3n2C1 | – | – | 6.30 to 9.00 | 6.30 to 9.00
8 | COc1ccc2c(c1)C=C(c1c(C(=O)N3CC4CCC(C3)O4)cnn1CC(F)(F)F)Cn1c-2c(C2CCCCC2)c2ccc(C(=O)NS(=O)(=O)C(C)C)cc21 | – | – | 6.30 to 9.00 | 6.30 to 9.00
9 | COc1ccc2c(c1)C=C(c1c(C(=O)N3C4COCC3COC4)cnn1CC(F)(F)F)Cn1c-2c(C2CCCCC2)c2ccc(C(=O)NS(=O)(=O)C(C)C)cc21 | – | – | 6.30 to 9.00 | 6.30 to 9.00
10 | COc1ccc2c(c1)C=C(c1c(C(=O)N3CC4CC3CO4)cnn1CC(F)(F)F)Cn1c-2c(C2CCCCC2)c2ccc(C(=O)NS(=O)(=O)C(C)C)cc21 (stereo not drawn) | – | 6.30 to 9.00 | 6.30 to 9.00 | –
11 | COc1ccc2c(c1)C=C(c1c(C(=O)N3CCN(C)CC3)cnn1CC(F)(F)F)Cn1c-2c(C2CCCCC2)c2ccc(C(=O)NS(=O)(=O)C(C)C)cc21 | 6.30 to 9.00 | 6.30 to 9.00 | – | –
12 | COc1ccc2c(c1)C=C(c1c(C(=O)N3C4CCCC3COC4)cnn1C(C)C)Cn1c-2c(C2CCCCC2)c2ccc(C(=O)NS(=O)(=O)C(C)C)cc21 | – | – | 6.30 to 9.00 | 6.30 to 9.00
13 | COc1ccc2c(c1)C=C(c1c(C(=O)N3CC4CC3CO4)cnn1C(C)C)Cn1c-2c(C2CCCCC2)c2ccc(C(=O)NS(=O)(=O)C(C)C)cc21 (stereo not drawn) | – | 6.30 to 9.00 | 6.30 to 9.00 | –
14 | COc1ccc2c(c1)C=C(c1c(C(=O)N3CCN(C)CC3)cnn1C(C)C)Cn1c-2c(C2CCCCC2)c2ccc(C(=O)NS(=O)(=O)C(C)C)cc21 | 6.30 to 9.00 | 6.30 to 9.00 | – | –
15 | COc1ccc2c(c1)C=C(c1c(C(=O)N3C4CCC3CN(C)C4)c(C)nn1C(C)C)Cn1c-2c(C2CCCCC2)c2ccc(C(=O)NS(=O)(=O)C(C)C)cc21 | – | – | 6.30 to 9.00 | 6.30 to 9.00
16 | CCn1nc(C)c(C(=O)N2C3CCC2CN(C)C3)c1C1=Cc2cc(OC)ccc2-c2c(C3CCCCC3)c3ccc(C(=O)NS(=O)(=O)C(C)C)cc3n2C1 | – | – | 6.30 to 9.00 | 6.30 to 9.00
17 | CCOC(=O)c1c(C)nn(CC)c1C1=Cc2cc(OC)ccc2-c2c(C3CCCCC3)c3ccc(C(=O)O)cc3n2C1 | < 6.30 | 6.30 to 9.00 | – | –
18 | CCOC(=O)c1c(C)nn(CC)c1C1=Cc2cc(OC)ccc2-c2c(C3CCCCC3)c3ccc(C(=O)NS(=O)(=O)C(C)C)cc3n2C1 | < 6.30 | 6.30 to 9.00 | – | –
19 | CCOC(=O)c1c(C)nn(CC)c1C1=Cc2cc(OC)ccc2-c2c(C3CCCCC3)c3ccc(C(N)=O)cc3n2C1 | < 6.30 | 6.30 to 9.00 | – | –
20 | CCOC(=O)c1cnn(CC)c1C1=Cc2cc(OC)ccc2-c2c(C3CCCCC3)c3ccc(C(=O)OC(C)(C)C)cc3n2C1 | < 6.30 | < 6.30 | – | –
21 | CCOC(=O)c1cnn(CC)c1C1=Cc2cc(OC)ccc2-c2c(C3CCCCC3)c3ccc(C(=O)O)cc3n2C1 | < 6.30 | 6.30 to 9.00 | – | –
22 | CCOC(=O)c1cnn(CC)c1C1=Cc2cc(OC)ccc2-c2c(C3CCCCC3)c3ccc(C(=O)NS(=O)(=O)C(C)C)cc3n2C1 | < 6.30 | 6.30 to 9.00 | – | –
23 | CCn1ncc(C(=O)N2C[C@@H](C)O[C@@H](C)C2)c1C1=Cc2cc(OC)ccc2-c2c(C3CCCCC3)c3ccc(C(=O)NS(=O)(=O)C(C)C)cc3n2C1 | 6.30 to 9.00 | 6.30 to 9.00 | – | –
24 | CCn1ncc(C(=O)N2CC3CCC(C2)N3C)c1C1=Cc2cc(OC)ccc2-c2c(C3CCCCC3)c3ccc(C(=O)NS(=O)(=O)C(C)C)cc3n2C1 | – | – | 6.30 to 9.00 | 6.30 to 9.00
25 | CCn1nc(C)c(C(=O)N2C3CCCC2COC3)c1C1=Cc2cc(OC)ccc2-c2c(C3CCCCC3)c3ccc(C(=O)NS(=O)(=O)C(C)C)cc3n2C1 | – | – | 6.30 to 9.00 | 6.30 to 9.00
26 | COc1ccc2c(c1)C=C(c1c(C(=O)N3C4CCC3CN(C)C4)ncn1C(C)C)Cn1c-2c(C2CCCCC2)c2ccc(C(=O)NS(=O)(=O)C(C)C)cc21 | – | – | 6.30 to 9.00 | 6.30 to 9.00
27 | COc1ccc2c(c1)C=C(c1c(C(=O)N3C4CCC3CN(C)C4)nnn1C(C)C)Cn1c-2c(C2CCCCC2)c2ccc(C(=O)NS(=O)(=O)N(C)C)cc21 | – | – | 6.30 to 9.00 | 6.30 to 9.00
